Results on one sequence are retold here after publication PMC9046087, “Structural basis of tethered agonism of the adhesion GPCRs ADGRD1 and ADGRF1” (Nature, 2022).

Residue numbers refer to the chain shown, from its start. Ends that are not written are not given here.

Holding throughout (assay): BRET assay using TRUPATH biosensors, Gi activation of ADGRF1
Holding throughout (type): cell-based
A general note: In BRET a luciferase serves as donor, and the signal depends on an acceptor being close.

The target in experiment [1] is T1, ADGRF1 (Homo sapiens, UniProt Q5T601, V689A).
T1 construct: Flag (N); expressed in transfected cells; host or cells: HEK293F
T1 sequence (Q5T601 20-910 V689A): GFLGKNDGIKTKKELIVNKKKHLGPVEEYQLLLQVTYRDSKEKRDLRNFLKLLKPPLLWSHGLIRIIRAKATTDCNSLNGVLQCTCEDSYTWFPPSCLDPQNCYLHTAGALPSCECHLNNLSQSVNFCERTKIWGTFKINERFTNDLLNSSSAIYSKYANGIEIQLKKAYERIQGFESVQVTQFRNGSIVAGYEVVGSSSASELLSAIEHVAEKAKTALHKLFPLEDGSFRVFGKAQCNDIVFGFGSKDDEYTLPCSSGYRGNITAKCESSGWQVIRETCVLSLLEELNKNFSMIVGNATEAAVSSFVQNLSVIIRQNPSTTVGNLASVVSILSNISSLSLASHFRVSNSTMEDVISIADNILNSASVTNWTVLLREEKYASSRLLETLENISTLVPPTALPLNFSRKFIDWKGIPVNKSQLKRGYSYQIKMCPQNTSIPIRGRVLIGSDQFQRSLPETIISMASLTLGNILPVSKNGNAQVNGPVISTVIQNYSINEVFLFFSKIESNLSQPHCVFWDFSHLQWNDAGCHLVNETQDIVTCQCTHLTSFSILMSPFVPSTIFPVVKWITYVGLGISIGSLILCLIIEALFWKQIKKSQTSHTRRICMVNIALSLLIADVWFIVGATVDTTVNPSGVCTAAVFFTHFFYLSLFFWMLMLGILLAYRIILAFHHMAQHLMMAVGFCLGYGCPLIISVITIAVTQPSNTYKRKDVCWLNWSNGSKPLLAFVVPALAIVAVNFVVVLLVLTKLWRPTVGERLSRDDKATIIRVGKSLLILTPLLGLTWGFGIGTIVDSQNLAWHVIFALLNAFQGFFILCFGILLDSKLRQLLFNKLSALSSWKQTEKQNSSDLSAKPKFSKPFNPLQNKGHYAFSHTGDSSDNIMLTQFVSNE
Conditions: ADGRF1 V689^ICL2A. How it is done: (§1) To study the synthetic stalk peptide-induced G protein activation of ADGRD1 and ADGRF1, a BRET assay using TRUPATH biosensors was conducted to measure the proximal interaction between RLuc8 fused to the Gα subunit and GFP2 fused to the Gγ subunit. The TRUPATH suite of biosensors was obtained from Addgene (Addgene kit no. 1000000163) as a gift from B. Roth, including GαsS-RLuc8, Gαi1-RLuc8, Gβ3 and Gγ9-GFP2 as previously described.
(§2) The wild-type or mutant ADGRD1 and ADGRF1 were transiently co-transfected with plasmids encoding Gα-RLuc8 (GαsS-RLuc8 for Gs activation assay; Gαi1-RLuc8 for Gi activation assay), Gβ3 and Gγ9-GFP2 at a ratio of 2:1:1:1 (receptor plasmid, 800 ng; G protein subunit plasmids, 400 ng for each) in 2 ml HEK293F cells at a density of 1.2 × 10^6 cells per ml. Cell cultivation and receptor surface expression measurement were performed as described above. The cells were plated into 96-well white plates (40,000 cells per well) in 60 μl of assay buffer and incubated at 37 °C for 30 min. Then 10 μl of freshly prepared 50 μM coelenterazine 400a (Nanolight Technologies) was added. […] The cells were stimulated with 30 μl of synthetic stalk peptide at different concentrations and the BRET signals were monitored continuously five times. The last measurements were used in data analysis. The BRET ratios were calculated as the ratio of the GFP2 emission to RLuc8 emission.

Experiment [2] has as its target T2, ADGRF1 (Homo sapiens, UniProt Q5T601, G801A).
T2 construct: Flag (N); expressed in transfected cells; host or cells: HEK293F
To be noted: ADGRF1 G801^6.50bA. How it is done: as §1, §2

Experiment [3] has as its target T3, ADGRF1 (Homo sapiens, UniProt Q5T601, T589A).
T3 construct: Flag (N); expressed in transfected cells; host or cells: HEK293F
To be noted: ADGRF1 T589^1.40bA. How it is done:
as §1, §2

The target in experiment [4] is T4, ADGRF1 (Homo sapiens, UniProt Q5T601, V585A).
T4 construct: Flag (N); expressed in transfected cells; host or cells: HEK293F
T4 sequence (Q5T601 20-910 V585A): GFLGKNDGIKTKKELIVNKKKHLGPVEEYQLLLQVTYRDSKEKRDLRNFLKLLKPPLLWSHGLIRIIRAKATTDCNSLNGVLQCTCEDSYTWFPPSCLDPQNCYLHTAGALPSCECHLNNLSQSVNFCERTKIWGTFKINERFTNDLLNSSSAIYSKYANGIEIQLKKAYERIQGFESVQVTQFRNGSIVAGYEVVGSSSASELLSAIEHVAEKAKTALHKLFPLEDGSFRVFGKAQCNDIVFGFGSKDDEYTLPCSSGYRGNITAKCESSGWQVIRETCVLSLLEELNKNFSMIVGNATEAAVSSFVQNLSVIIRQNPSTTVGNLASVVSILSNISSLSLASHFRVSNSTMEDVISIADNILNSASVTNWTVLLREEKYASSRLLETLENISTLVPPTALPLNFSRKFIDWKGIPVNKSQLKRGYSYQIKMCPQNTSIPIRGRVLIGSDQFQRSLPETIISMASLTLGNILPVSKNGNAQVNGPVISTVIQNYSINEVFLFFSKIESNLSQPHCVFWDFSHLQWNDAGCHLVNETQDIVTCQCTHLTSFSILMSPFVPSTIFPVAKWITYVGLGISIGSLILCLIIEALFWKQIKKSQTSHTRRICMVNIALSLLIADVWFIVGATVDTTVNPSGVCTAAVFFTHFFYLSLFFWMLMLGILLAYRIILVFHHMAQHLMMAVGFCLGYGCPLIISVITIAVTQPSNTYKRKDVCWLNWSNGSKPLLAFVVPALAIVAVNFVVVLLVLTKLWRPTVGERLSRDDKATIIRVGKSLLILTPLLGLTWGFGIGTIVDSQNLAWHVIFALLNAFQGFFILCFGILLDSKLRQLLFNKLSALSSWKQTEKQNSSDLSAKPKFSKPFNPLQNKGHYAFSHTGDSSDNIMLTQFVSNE
Conditions: ADGRF1 V585^1.36bA. How it is done:
as §1, §2

Experiment [5] has as its target T5, ADGRF1 (Homo sapiens, UniProt Q5T601, P798A).
T5 construct: Flag (N); expressed in transfected cells; host or cells: HEK293F
Conditions: ADGRF1 P798^6.47bA. The protocol: as §1, §2

For experiment [6], the target named is T6, ADGRF1 (Homo sapiens, UniProt Q5T601, L769A).
T6 construct: Flag (N); expressed in transfected cells; host or cells: HEK293F
T6 sequence (Q5T601 20-910 L769A): T1 sequence (Q5T601 20-910 V689A) with A670V, L750A
Conditions: ADGRF1 L769^5.61bA. How it is done: as §1, §2

Experiment [7] addresses T7, ADGRF1 (Homo sapiens, UniProt Q5T601, W804A).
T7 construct: Flag (N); expressed in transfected cells; host or cells: HEK293F
Conditions: ADGRF1 W804^6.53bA. The protocol:
as §1, §2

[8] abbreviates: n = 3, read-out: pEC50 (mean ± s.e.m.) (converted).

T5 sequence (Q5T601 20-910 P798A): as the sequence (Q5T601 20-910 V585A) above, with A566V, P779A counted along it
T2 sequence (Q5T601 20-910 G801A): as the sequence (Q5T601 20-910 V585A) above, with A566V, G782A counted along it
T3 sequence (Q5T601 20-910 T589A): as the sequence (Q5T601 20-910 V585A) above, with A566V, T570A counted along it
T7 sequence (Q5T601 20-910 W804A): as the sequence (Q5T601 20-910 V585A) above, with A566V, W785A counted along it

For the sequence TSFSILMSPFVP [pF1], the “Emax (mean ± s.e.m.)” value at ADGRF1 [1] (n = 3) is 67 ± 7 % of WT; at ADGRF1 [2] (n = 3), 127 ± 13 % of WT; at ADGRF1 [3] (n = 3), 114 ± 13 % of WT; at ADGRF1 [4] (n = 3), 84 ± 8 % of WT; on ADGRF1 [5] (n = 3), 94 ± 17 % of WT; on ADGRF1 [6] (n = 3) it was 102 ± 12 % of WT. Moreover, the “Emax (mean ± s.e.m.)” value at ADGRF1 [7] (n = 4) is recorded as 86 ± 19 % of WT. The EC50 was 0.263 µM on ADGRF1 [1] (setting [8]); 0.347 µM at ADGRF1 [2] (setting [8]); 0.0871 µM at ADGRF1 [3] (setting [8]); 0.437 µM on ADGRF1 [4] (setting [8]); 0.912 µM on ADGRF1 [5] (setting [8]); 0.302 µM on ADGRF1 [6] (setting [8]). Further, the EC50 at ADGRF1 [7] (n = 4, read-out: pEC50 (mean ± s.e.m.) (converted)) was 0.977 µM.
